Measurements as given in publication PMC11509018, “Evaluation of the Role of Tanshinone I in an In Vitro System of Charcot-Marie-Tooth Disease Type 2N” (International Journal of Molecular Sciences, 2024).

Key:
AlaRS^R329H [1] = molecular target: T1, AlaRS^R329H (Homo sapiens, UniProt P49588, R329H); test: Biolayer interferometry (BLI); format: binding; settings: immobilized AlaRS^R329H, 40, 20, 10, 5, 2.5 μM, mean ± SD, triplicate
T1 construct: made in house; host or cells: E. coli BL21 (DE3), pET-21a
T1 sequence (P49588 1-968 R329H): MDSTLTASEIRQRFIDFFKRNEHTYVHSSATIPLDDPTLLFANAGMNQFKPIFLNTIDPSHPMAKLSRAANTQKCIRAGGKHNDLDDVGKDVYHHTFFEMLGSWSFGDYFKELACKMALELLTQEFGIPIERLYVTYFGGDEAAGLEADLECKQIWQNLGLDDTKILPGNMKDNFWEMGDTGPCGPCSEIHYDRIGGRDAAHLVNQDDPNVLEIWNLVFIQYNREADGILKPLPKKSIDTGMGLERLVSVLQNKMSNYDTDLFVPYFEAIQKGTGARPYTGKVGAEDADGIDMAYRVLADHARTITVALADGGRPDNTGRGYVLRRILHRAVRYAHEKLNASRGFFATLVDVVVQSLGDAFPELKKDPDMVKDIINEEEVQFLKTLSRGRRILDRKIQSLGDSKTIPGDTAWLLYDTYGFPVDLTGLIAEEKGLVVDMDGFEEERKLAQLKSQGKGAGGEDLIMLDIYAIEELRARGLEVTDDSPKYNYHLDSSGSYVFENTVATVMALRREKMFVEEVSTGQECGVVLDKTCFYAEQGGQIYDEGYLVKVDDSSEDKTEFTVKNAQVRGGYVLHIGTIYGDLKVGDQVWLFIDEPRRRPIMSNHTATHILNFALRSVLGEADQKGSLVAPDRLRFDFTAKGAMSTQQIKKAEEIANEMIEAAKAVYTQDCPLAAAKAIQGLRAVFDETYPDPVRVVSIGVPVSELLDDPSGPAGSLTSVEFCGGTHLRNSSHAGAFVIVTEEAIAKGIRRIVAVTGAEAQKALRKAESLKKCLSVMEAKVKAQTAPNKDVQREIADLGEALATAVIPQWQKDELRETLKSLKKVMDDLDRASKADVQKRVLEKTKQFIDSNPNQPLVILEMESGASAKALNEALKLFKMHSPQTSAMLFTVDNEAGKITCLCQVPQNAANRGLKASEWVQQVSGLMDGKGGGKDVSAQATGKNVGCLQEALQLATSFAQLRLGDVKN
Source text: To quantitatively analyze the binding affinity between the small molecules and the CMT mutant proteins, we performed BLI analysis on the selected candidates. BLI offers direct measurements of drug–protein binding kinetics, including key parameters such as the equilibrium dissociation constant (KD), association rate (Kon), and dissociation rate (Koff). This analysis provided key insights into the binding affinities of the four small molecules with the mutant protein AlaRS^R329H. […] To further quantify the binding of small molecules to mutant proteins, binding experiments with AlaRS^R329H proteins and small molecules were conducted using an Octet R8 system (ForteBio, Fremont, CA, USA). Purified His-tagged AlaRS^R329H proteins (500 μg/mL) were captured on Ni-NTA biosensors (ForteBio, Fremont, CA, USA), achieving a saturation response of 4–5 nm after 300 s. The biosensors were then transferred to Octet buffer (PBS with 0.01% Tween 20) for 180 s to remove loosely bound, nonspecific proteins and to establish a stable baseline. Following this, the sensors were immersed in diluted Tanshinone I (2.5–100 μM in assay buffer) for 120 s to record the association signal, and then transferred back into Octet buffer to monitor the dissociation signal for 120 s. Reference wells containing buffer instead of Tanshinone I were included to correct for baseline shifts. Additionally, a parallel set of Ni-NTA sensors in buffer served as negative reference controls to account for nonspecific binding of the compounds to the biosensor surface. The data were processed using a double reference subtraction protocol to eliminate nonspecific signals, background noise, and signal drifts caused by biosensor variability. All assays were performed in 96-well black plates with a total volume of 200 μL per well at 30 °C. Data analysis, including correction and curve fitting, was carried out using Octet® Analysis Studio 12.2.2.26. The experiment was repeated three times.

AlaRS^R329H [2] = molecular target: T1, AlaRS^R329H; test: ATP consumption assay (enzyme inhibition); format: biochemical; settings: 1 μM AlaRS^R329H at 20 μM compounds; vs DMSO control
Method: We further investigated the effects of the four small molecules on the enzymatic activity of the AlaRS^R329H protein using an ATP consumption assay. All four compounds affected enzymatic activity to varying degrees. […] The ATP consumption assay was used to evaluate the enzymatic inhibitory activity of the compounds. A 30 μL reaction mixture, containing 1 μM AlaRS mutants, 25 μM ATP, 50 μM L-alanine, 30 mM HEPES (pH 7.5), 150 mM NaCl, 30 mM KCl, 40 mM MgCl2, 0.1% BSA, and varying concentrations of Tanshinone I, was incubated at room temperature for 15 min. After incubation, 10 μL of the mixture was transferred to a 384-well microplate, and AlaRS mutant activity was measured by adding 10 μL of the ATP Assay Kit (#S0026, Beyotime, Shanghai, China). Luminescence was recorded using a Synergy HTX multimode microplate reader (BioTek Inc., Winooski, VT, USA). The inhibitory rate was calculated from three independent assays to ensure the accurate assessment of Tanshinone I’s inhibitory activity. The experiment was repeated three times.

Cc1coc2c1C(=O)C(=O)c1c-2ccc2c(C)cccc12 [Tanshinone I]
Kd (AlaRS^R329H [1]): 5.1 ± 1.9 µM
Relative Activity (relative enzyme activity of the first step) (AlaRS^R329H [2]): 26.2%
